Earlier results as cited in PMC10534093 (Food Chemistry: X, 2023).
Where two headings read alike, the source gives them in different places.

Columns and labels:
ACE [1] = conditions: Table 2; ref BIOPEP-UWM and AHTPDB
ACE [2] = tested on: ACE
α-glucosidase [3] = conditions: Table 1; ref BIOPEP-UWM and AHTPDB
α-glucosidase [4] = conditions: ref Zhang, Wang, & Li, 2016

Substance | Known activity in the database (ACE [1]) | also measured
DRDSYNLHPGDAQRIPAGTTY | ACE inhibitor | 
DRPSIGNLAGANSLLNALP | ACE inhibitor | 
EGEQPRPFPFP | ACE inhibitor | 
GPAGPAGL |  | IC50 against ACE (ACE [2]; ref Kheeree et al., 2020): 8 µg/mL
IGTLAGANSLLNALP | ACE inhibitor | 
IPPGVPYWT |  | IC50 against ACE (ACE [2]; ref Sitanggang, Putri, Palupi, Hatzakis, & Budijanto, 2021): 400 µg/mL
IQAEGGLT [reference compound] |  | Known activity in the database (α-glucosidase [3]): Alpha-glucosidase inhibitor
IVTVEGGLSVISPKW |  | Known activity in the database (α-glucosidase [3]): Alpha-glucosidase inhibitor
NMAINPSKENLCSTFCK |  | IC50 against ACE (ACE [2]; ref Tu et al., 2018): 2830 µg/mL
NNPFKFLVPPQESQKR | ACE inhibitor | 
NSPR |  | IC50 against α-glucosidase (α-glucosidase [4]): 93 µg/mL
PFSFLVPPQESQR | ACE inhibitor | 
PIYSNKLGKFF | ACE inhibitor | 
PLDLTSFVLH | ACE inhibitor | 
PSEVEAVFKPLGPEVGELRV | ACE inhibitor | 
PSSPFTDLWDPRRVGD | ACE inhibitor | 
QIGLF [reference compound] | ACE inhibitor | IC50 against ACE (ACE [2]; reference peptide, ref Yu, Zhao, Liu, Lu, & Chen, 2011): 420 µg/mL
RPSIGNLAGANSLLNALP | ACE inhibitor | 
RPSIGNLAGANSLLNALPE | ACE inhibitor | 
TFSEYPPLGR |  | Known activity in the database (α-glucosidase [3]): Alpha-glucosidase inhibitor
TPMIGTLAGANSLLNALP | ACE inhibitor | 
VISQIPSQVQELAFPG | ACE inhibitor | 
WGPLVNPESQQGSPR | ACE inhibitor | 
YEAGVVPPGARFEPPR | ACE inhibitor | 
